Data on one compound can be found in patent US8815830B2, “Nucleosides with antiviral and anticancer activity” (Regents of the University of Minnesota, priority 2004, dated 2014).

Structures are written as SMILES.

For the assay, the system named is CCRF-CEM cells. Briefly: Test C: anti-cancer assay, CCRF-CEM cell viability by MTS reagent. The following applies: 48 hr incubation at 37° C., MTS reagent 4 hr, absorbance at 490 nm, triplicate. The assay is classed as cell-based, human. As for the experimental part: The anti-cancer properties of the compounds of the invention can be evaluated using the following assay.
CCRF-CEM cells were grown in medium containing RPMI 1640 supplemented with 10% heat-inactivated fetal bovine serum, penicillin (124 units/ml of medium) and streptomycin (0.125 mg/ml of medium). A stock solution of […] was made using Trypan Blue Dye Exclusion Method as a means of counting the cells. The following concentrations of test compounds were made: 250, 200, 100, 10, 1, 0.1, 0.01 and 0.001 μM. The cell stock (50 μl, 5×10^4 cells) was incubated with 50 μl of each of the compounds in triplicate in a 96-well plate. The cells were incubated with the compound at 37° C. in a 10% CO2-90% air environment for 48 hr. A negative control was also done where the cells were incubated in drug-free medium.
Cell viability was determined by adding 20 μl of MTS reagent and incubating the cells for 4 hr after which the absorbance was found at 490 nm.
Background: Tetrazolium dyes change colour on reduction, which living cells bring about.

In general, IC50 refers to the concentration that inhibits the measured activity by half. As for `Nc1ncnc2c1ncn2[C@@H]1O[C@H](CO)[C@@H](O)[C@@H]1O` [Ara-A, 9-beta-D-arabinofuranosyladenosine], it took 384 ± 134 µM to reach half-maximal inhibition (IC50).
